Measurements from PMC8068036, “Synthesis of New Biscoumarin Derivatives, In Vitro Cholinesterase Inhibition, Molecular Modelling and Antiproliferative Effect in A549 Human Lung Carcinoma Cells” (International Journal of Molecular Sciences, 2021).
Like-named read-outs stand apart in the source and are kept apart here.

Legend:
A549 cells [1] = test: MTT assay, A549; type: cell-based, human; conditions: for IC50: Homo sapiens
Description: (§1) Human lung carcinoma cell line A549 and CCD-18Co colon fibroblasts were purchased from the American Type Culture Collection (ATCC, Rockville, MD, USA). The A549 cells were cultured in a complete RPMI-1640 medium (Sigma-Aldrich, St. Louis, MO, USA), and CCD-18Co cells were cultured in an MEM medium (PAN-Biotech GmbH, Aidenbach, Germany). The media were supplemented with 10% fetal bovine serum (FBS; Biosera, Nuaille, France) and antibiotics (1% Antibiotic-Antimycotic 100× and 50 × 10^−3 g l^−1 gentamicin; Biosera) at 37 °C, 95% humidity, and 5% CO2.
(§2) Prior to the selected treatments, cells were seeded on 12-well μ-Chamber slides (ibidi GmbH, Martinsried, Germany) and 6 and/or 96-well plates (TPP, Trasadingen, Switzerland) and left to settle for 24 h. The biscoumarin derivative solutions (at concentrations ranging from 10–100 µM) were then added to cells for 24 or 48 h, and analysis was subsequently performed.
(§3) MTT assays were performed in order to evaluate changes in the metabolic activity of cells that had occurred as a consequence of treatment with the biscoumarin derivatives. A549 cells (15 × 10^3 cells/cm^2) and CCD-18Co ([…]) were seeded in 96-well microplates. The cells were treated for 24 and 48 h with different concentrations (10, 25, 35, 50, 65, 75, and 100 µM) of the derivatives. After the treatment, the MTT (3-(4,5-dimethylthiazol-2-yl)-2,5-diphenyltertrazolium bromide) solution in PBS (5 mg mL^−1) was added to each well. […]. The absorbance of formazan (λ = 584 nm) was measured using a BMG FLUOstar Optima spectrometer (BMG Labtech GmbH, Offenburg, Germany). The results were evaluated as percentages of the absorbance of the untreated control. Results are presented as the average percentage of cells from three independent experiments. IC50 values for the derivatives were extrapolated from a sigmoidal fit (dose–response curve) to the metabolic activity data using OriginPro 8.5.0 SR1 (OriginLab Corp., Northampton, MA, USA).

CCD-18Co fibroblasts = test: MTT assay, CCD-18Co; type: cell-based; conditions: for IC50: Homo sapiens, CCD-18Co
Description: as §1, §2, §3

A549 cells [2] = test: Quantification of cell number and viability (eosin staining); type: cell-based, human; conditions: 35 and 65 μM, 24 h, eosin negative cells
Description: For the assessment of total cell numbers and viability within individual experimental groups, floating and adherent cells were harvested after treatment with the studied derivatives and evaluated using a Bürker chamber with eosin staining. A549 cells were plated at a density of 135 × 10^3 cell/well into a 6-well plate and treated with different concentrations of derivatives (35 and 65 µM) for 24 hrs. The total cell number was expressed as a percentage of the total cell number of the untreated control. Viability was expressed as a percentage of viable, eosin negative cells. The results are presented as the average percentage of cells from three independent experiments.

A549 cells [3] = test: Colony-forming assay; type: cell-based, human; conditions: 65 μM, 24 h treatment, 7 days cultivation, vs untreated control
Description: For the colony-forming assay, floating and adherent cells were harvested together 24 h after treatment with the studied derivatives (35 and 65 µM). The cells were then counted using a Bürker chamber with eosin staining, and 500 viable cells per well were seeded in 6-well plates. After 7 days of cultivation under standard conditions, the cells in the plates were fixed and stained with 1% methylene blue dye in methanol. Visualized colonies were scanned and counted, and the results were evaluated as percentages of the untreated control. The results are presented as the average percentage of colonies from three independent experiments.

A549 cells [4] = test: Mitotic activity (Ki67 index) by immunolabelling and confocal microscopy; type: cell-based, human; conditions: 24 h, control 90.6 ± 5.7%
Description: (§4) The studied biscoumarin derivatives were added to cells seeded on 12-well μ-Chamber slides for 24 h. After cultivation with the derivatives, the samples (both the control without the derivatives and experimental groups) were washed with a 0.1 M PBS solution buffer to remove all non-cell-absorbed derivative residues and fixed with 4% paraformaldehyde for 20 min at RT. Alternatively, cells were incubated with Mitotracker Red (0.5 µM; Thermo Fisher Scientific, Waltham, MA, USA) for 30 min at 37 °C, washed with 0.1 M PBS, and fixed with 4% paraformaldehyde for 20 min at RT. For the quantification of proliferative activity and programmed cell death, samples were incubated overnight at 4 °C with the mouse anti-Ki67 antibody (NCL-L-Ki67-MM1, 1:100, Leica Biosystems, Wetzlar, Germany) and rabbit anti-cleaved PARP (cat. no. 94885, 1:100, Cell Signaling, Danvers, MA, USA) diluted in 0.1 M PBS containing 1% normal donkey serum (Jackson Immunoresearch, Cambridgeshire, Great Britain) and 0.3% Triton-X 100. […]
All samples were evaluated using a Leica TCS SP5X confocal system (Leica Microsystems, Mannheim, Germany). The biscoumarin derivatives were visualized in cells using a 405 nm laser, and the fluorescence was captured in the range of 420–480 nm with identical exposure parameters for all samples. […] Microphotographs were taken with a 40× objective lens (NA = 0.75; voxel size 223 × 223 nm) and a 63× oil lens (NA = 1.4; voxel size 171 × 171 nm); the images were captured and analyzed using LAS AF software (Leica Microsystems, Wetzlar, Germany).
The proliferative activity of cells incubated with the studied derivatives was expressed as a Ki67 index. In all samples (n = 3 samples per each experimental group), the number of Ki67^+ nuclei was calculated in groups of 100 randomly selected cells. […]

A549 cells [5] = test: Apoptosis by cleaved PARP immunolabelling; type: cell-based, human; conditions: A549, 24 h
Description: as §4
All samples were evaluated using a Leica TCS SP5X confocal system (Leica Microsystems, Mannheim, Germany). The biscoumarin derivatives were visualized in cells using a 405 nm laser, and the fluorescence was captured in the range of 420–480 nm with identical exposure parameters for all samples. […]

## COC(=O)Cc1cc(=O)oc2cc(OCCCCCCCCN3CCN(CCNC(=O)Cc4cc(=O)oc5cc(O)ccc45)CC3)ccc12 [12e, Methyl 2-[7-({2-[4-(2-{[2-(7-hydroxy-2-oxo-2H-4-chromenyl)acetyl]amino}etyl)piperazino]oktyl}oxy)-2-oxo-2H-4-chromenyl]acetate]
A549 cells [1]; 10 to 100 μM, 24 and 48 h
  Metabolic activity of A549 cells (in words): significant decrease
A549 cells [1]; A549, 24 h, read-out: IC50 A549 24 h
  IC50: 49 µM
A549 cells [1]; A549, read-out: IC50 A549 48 h, 48 h
  IC50: 35 µM
CCD-18Co fibroblasts; 24 or 48 h
  Metabolic activity of CCD-18Co cells (in words): significantly reduced metabolic activity
CCD-18Co fibroblasts; 24 h, read-out: IC50 CCD-18Co 24 h
  IC50: > 100 µM
CCD-18Co fibroblasts; read-out: IC50 CCD-18Co 48 h, 48 h
  IC50: > 100 µM
CCD-18Co fibroblasts; time not stated, read-out: IC50 CCD-18Co
  IC50: > 100 µM
A549 cells [2]
  Cell viability of A549 (in words): reduced cell viability at a concentration of 65 μM
A549 cells [3]
  Reduction in relative number of colonies: 20%
A549 cells [4]; 35 µM
  Number of proliferating cells (Ki67 index): 59.4 ± 2.6%
A549 cells [4]; 65 µM
  Number of proliferating cells (Ki67 index): 16.5 ± 12.9%
A549 cells [5]
  Apoptotic cells (cleaved PARP): ≤ 0.001%
